In patent publication US20140228543A1, “MODIFIED AND DERIVATIZED ß-GLUCAN COMPOUNDS, COMPOSITIONS, AND METHODS” (Biothera, Inc., priority 2011, published 2014):

Assays:
human neutrophils [1] = test: iC3b deposition on neutrophils (flow cytometry); type: cell-based; settings: 200 μg/mL hexose concentration, 2 hr, 37° C., 10% serum
Description: This ability was evaluated by comparing the levels of iC3b complement fragment detected on human neutrophils with the derivative versus parent β-glucan-bound.
Enriched neutrophils were resuspended at 1×10^6 cells/mL in RPMI 1640 supplemented with 10% serum. The parent or the derivatized glucans at 200, μg/mL hexose concentration were added to neutrophils and incubated in a 37° C., 5% C02 humidified incubator for 2 hr. After incubation, cells were washed twice with FACS buffer (HBSS supplemented with 1% FBS and 0.1% sodium azide) to remove any unbound β-glucan, stained with a neo-epitope specific anti-iC3b Ab and PE-conjugated goat anti-mouse IgG and subsequently analyzed by flow cytometry.
Table 1 below lists the fold change of mean fluorescence intensity (MFI) values of iC3b staining on neutrophils treated with each of the parent or derivatized glucans over that of PBS control-treated cells.

human neutrophils [2] = test: β-glucan binding on neutrophils (BfD IV staining, flow cytometry); type: cell-based; settings: 200 μg/mL hexose concentration, 2 hr, 37° C., 10% serum
Description: This ability was evaluated by comparing the levels of neutrophil-bound parent versus the derivatives of β-glucans detected by BfD IV, a monoclonal antibody (MAb) specific for β-1,3/1,6 glucans. […] Table 2 lists the fold change of MFI values of BfD IV staining on neutrophils treated with each of the parent and derivatized glucans over that of PBS control-treated cells.
Enriched neutrophils were resuspended at 1×10^6 cells/mL in RPMI 1640 supplemented with 10% serum. The parent or the derivatized glucans at 200, μg/mL hexose concentration were added to neutrophils and incubated in a 37° C., 5% CO2 humidified incubator for 2 hr. After incubation, cells were washed twice with FACS buffer (HBSS supplemented with 1% FBS and 0.1% sodium azide) to remove any unbound β-glucan, and subsequently treated with Fc block. Post Fc block step, cells were stained with the BfD IV Ab for 30 min at 4° C. and washed twice with cold FACS buffer. Cells were then incubated with FITC-conjugated F(ab′)2 goat anti-mouse IgM for 30 min at 4° C. and washed once with cold FACS buffer before fixing with 1% paraformaldehyde. Events were collected on a LSRII flow cytometer and analysis was performed using FlowJo software.
Table 2 summarizes the fold change of MFI values of BfD IV staining on neutrophils treated with each of the parent, or derivatized β-glucans, over that of PBS control-treated cells.

| Substance | Approximate Fold Increase/Decrease in MFI over Parent Compound (iC3b) (human neutrophils [1]) [fold] | MFI(ic3b) compound/MFI(ic3b) PBS (human neutrophils [1]) | Approximate Fold Increase/Decrease in MFI over Parent Compound (BfD IV) (human neutrophils [2]) [fold] | MFI(BID IV) compound/MFI(BID IV) PBS (human neutrophils [2]) |
| --- | --- | --- | --- | --- |
| Propyl Amine MMW Yeast Glucan Analog [BT-1267] | 4.0 | 8.0 ± 3.9 | 5.6 | 23.6 ± 16.4 |
| Benzyl Amine Laminarin Analog [BT-1234] | 3.9 | 5.1 | 70.0 | 77 |
| Propyl Amine LMW Yeast Glucan Analog [BT-1276] | 1.1 | 1.2 ± 0.1 | 1.0 | 1.5 ± 0.1 |
| Galactose Propyl Amine LMW Yeast Glucan Analog [BT-1277] | 0.9 | 1.0 | 0.9 | 1.3 |
| Benzyl Amine Scleroglucan Analog [BT-1272] | 2.4 | 3.9 | 1.7 | 3.2 |
| Galactose Propyl Amine MMW Yeast Glucan Analog [BT-1245] | 2.3 | 4.5 ± 1.2 | 1.6 | 6.6 ± 3.78 |
| Dextran [Dextran (control), reference compound] | – | 1.1 ± 0.2 | – | 1.0 |
| Tryptophan MMW Yeast Glucan Analog [BT-1220] | 5.1 | 10.1 | 4.8 | 20.3 |
| Mannose Propyl Amine LMW Yeast Glucan Analog [BT-1278] | 0.9 | 1.0 | 0.9 | 1.3 |
| Mannose Propyl Amine Dextran Analog [BT-1287] | 0.9 | 1.0 | 1.0 | 1.0 |
| Mannose Propyl Amine Scleroglucan Analog [BT-1290] | 0.7 | 1.1 | 0.7 | 1.4 |
| Maltose Propyl Amine MMW Yeast Glucan Analog [BT-1248] | 1.8 | 3.5 ± 0.4 | 1.1 | 4.7 ± 3.8 |
| Laminarin [Laminarin (parent), reference compound] | – | 1.3 | – | 1.1 |
| Mannose Propyl Amine MMW Yeast Glucan Analog [BT-1243] | 4.3 | 8.6 ± 0.3 | 4.7 | 19.7 ± 13.4 |
| Scleroglucan [Scleroglucan (parent), reference compound] | – | 1.6 | – | 1.9 |
| 3-Aminopropyl Imidazole MMW Yeast Glucan Analog [BT-1304] | 0.6 | 1.2 | 0.5 | 2.1 |
